Assay results published in article PMC12714101, “CD160-Derived Peptide as a Bidirectional Inhibitor Toward Immune Checkpoints BTLA/HVEM and HVEM/LIGHT” (Journal of Medicinal Chemistry, 2025).
Where a SMILES comes first, the peptide text is derived from it.

Assay: NMR in PBS-buffered aqueous solution (aggregation)
Assay type: physicochemical
Details: 298 K, 2 mM sample
Experimental: First, circular dichroism (CD) spectra were recorded for this peptide in H2O and phosphate-buffered saline (PBS). In water, the peptide adopts a disordered structure, characterized by a minimum at 197 nm. In contrast, in PBS, it undergoes conformational ordering, forming a β-strand structure with a minimum at 214 nm and maximum at 197 nm. […] To further investigate the peptide’s structure, nuclear magnetic resonance (NMR) spectra were acquired in both buffer-free aqueous solution and PBS-buffered aqueous solution. […] Narrow amide proton chemical shift dispersion (ΔδHN = 0.7 ppm), absence of medium- and long-range nuclear Overhauser effects (NOEs), and ^3JNα coupling constants indicate a lack of well-defined secondary structure (Figures S9 and S10). […] Molecular dynamics simulations with NOE-derived distance restraints generated an ensemble of structures showing high conformational diversity. […]
NMR spectra were acquired at 298 K on Bruker spectrometers (^1H 700.55 MHz, 16.4 T and 500.13 MHz, 11.7 T). […] The ^1H–^13C HSQC spectrum was recorded at the natural abundance of the ^13C isotope. […] Spectra were processed and analyzed, respectively, with Topspin 4.4.1 (Bruker, Ettlingen, Germany) and NMRFAM-Sparky software packages. […]

Question: Which “Aggregation in PBS (NMR signal broadening)” value does the source give for CC[C@@H]1NC(=O)[C@@H](NC(=O)[C@H](CCC(N)=O)NC(=O)[C@H](Cc2ccc(O)cc2)NC(C)=O)CSSC[C@@H](C(=O)N[C@@H](Cc2c[nH]cn2)C(=O)N[C@@H](Cc2ccccc2)C(=O)N[C@@H](Cc2ccccc2)C(N)=O)NC(=O)[C@H](CCC(N)=O)NC(=O)[C@H](CC(C)C)NC(=O)[C@H](CCCNC(=N)N)NC(=O)[C@H]([C@@H](C)CC)NC(=O)CNC(=O)[C@H](CO)NC(=O)[C@H](CCCCN)NC(=O)[C@H](CCC(N)=O)NC(=O)[C@H](CO)NC(=O)[C@H](CCCNC(=N)N)NC(=O)[C@H](C)NC1=O [A5, CD160(110–128) ^(C113X,G125C)] (HELM PEPTIDE1{[ac].Y.Q.C.[Abu].A.R.S.Q.K.S.G.I.R.L.Q.C.H.F.F.[am]}$PEPTIDE1,PEPTIDE1,4:R3-17:R3$$$V2.0) here?
Answer: peptide aggregation
